Values of other authors as cited in US12364689B2, “Dosage regimen for the treatment of cancer” (AstraZeneca AB, priority 2020, dated 2025).

Legend:
ERα receptor [1] = biological target: T1, ERα receptor (Homo sapiens, UniProt P03372); conditions: in vitro breast cell line experiments; cited from earlier work
T1 sequence (P03372 1-595): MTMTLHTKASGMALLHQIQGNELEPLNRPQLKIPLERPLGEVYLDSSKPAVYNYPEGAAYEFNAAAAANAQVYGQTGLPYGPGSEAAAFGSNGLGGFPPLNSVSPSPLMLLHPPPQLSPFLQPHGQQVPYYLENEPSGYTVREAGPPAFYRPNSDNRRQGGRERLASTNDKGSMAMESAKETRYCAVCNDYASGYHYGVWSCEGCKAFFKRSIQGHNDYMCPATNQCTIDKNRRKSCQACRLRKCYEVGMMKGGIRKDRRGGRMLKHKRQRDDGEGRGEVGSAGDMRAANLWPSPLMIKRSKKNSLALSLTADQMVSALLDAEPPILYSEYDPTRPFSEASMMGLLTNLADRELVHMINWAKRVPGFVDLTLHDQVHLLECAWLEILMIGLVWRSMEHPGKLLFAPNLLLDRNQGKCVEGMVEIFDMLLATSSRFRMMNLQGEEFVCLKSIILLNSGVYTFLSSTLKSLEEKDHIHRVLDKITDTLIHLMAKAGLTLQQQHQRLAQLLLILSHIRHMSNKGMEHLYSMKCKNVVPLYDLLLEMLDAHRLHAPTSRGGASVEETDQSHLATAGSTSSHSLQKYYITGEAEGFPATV

ERα receptor [2] = biological target: T1, ERα receptor; conditions: 500 mg monthly dose; cited from earlier work

## C[C@]12CC[C@@H]3c4ccc(O)cc4C[C@@H](CCCCCCCCC[S+]([O-])CCCC(F)(F)C(F)(F)F)[C@H]3[C@@H]1CC[C@@H]2O (some centres unmarked) [Fulvestrant, fulvestrant]
ERα receptor [1]
  down-regulation of the receptor: complete down-regulation
ERα receptor [2]
  turnover of the receptor in patient samples: less than 50%
